Measured values published in patent publication US20230301968A1 (ZEPHAPHARM LTD, priority 2020, published 2023).
Where two headings read alike, the source gives them in different places.

How the values were obtained:
human liver microsomes = details: cited from earlier work
[1] = system: human cryopreserved hepatocytes; test: Stability in human cryopreserved hepatocytes with or without CYP1A2 inhibitors (assays 1 to 3); details: for decrease of flubendazole metabolism in the presence of the inhibitor: cryopreserved human hepatocytes, 1 µM flubendazole, over all inhibitor concentrations tested; for class of CYP1A2 inhibitor of flubendazole metabolism: human hepatocytes ex vivo
Method: (§1) In each assay, the amount of test compound remaining at each time point was analysed by LC-MS/MS.
(§2) The final incubation volume was 500 µL. […] A positive control compound, ethoxycoumarin, for CYP1A2 (as CYP1A2 substrate) was included. […] The reactions were stopped by transferring 50 µL of incubate to 100 µL acetonitrile containing internal standard at the appropriate time points (0, 5, 10, 20, 40 and 60 min). The termination plates were centrifuged at 2500 rpm at 4° C. for 30 min to precipitate the protein.
(§3) From a plot of In peak area ratio (compound peak area/internal standard peak area) against time, the gradient of the line was determined. Subsequently, half-life (t½) and intrinsic clearance (CLint) were calculated using the equations below: […]

[2] = humans, cited from earlier work
in vitro = details: human, hepatocytes; for half-life at 1 µM: t½
Method: as §1, §2, §3

Row | Structure (SMILES) | decrease of flubendazole metabolism in the presence of the inhibitor [1] | class of CYP1A2 inhibitor of flubendazole metabolism [1] | hepatocyte CLint at 1 µM (in vitro; CLint) [µL/min/1e6 cells] | half-life at 1 µM (in vitro) [min] | other results
1 | CCC[S+]([O-])c1ccc2[nH]c(NC(=O)OC)nc2c1 (stereo not drawn) [Ricobendazole, albendazole sulfoxide] |  |  |  |  | turnover in human liver microsomes (human liver microsomes): low turnover
2 | Cc1nc2c([nH]1)c(=O)n(C)c(=O)n2Cc1ccco1 [Furafylline, furafylline] | at least 4.2 fold | strong (inhibits intrinsic clearance (CLint) of flubendazole in human hepatocytes ex vivo by ≥five-fold) |  |  | increase in elimination half-life of caffeine ([2]; Tarrus et al., 1987): 7-10 fold
3 | CCOc1ccc2ccc(=O)oc2c1 |  |  | 25.4 | 54.5 | 
4 | COCCCC/C(=N\OCCN)c1ccc(C(F)(F)F)cc1 [Fluvoxamine, fluvoxamine] | at least 2.2 fold | strong (inhibits intrinsic clearance (CLint) of flubendazole in human hepatocytes ex vivo by ≥five-fold) |  |  | 
5 | Cn1c(=O)c2c(ncn2C)n(C)c1=O [caffeine] |  |  |  |  | elimination half-life ([2]; with furafylline): 50 h; elimination half-life ([2]; without furafylline): 5 to 7 h
6 | O=c1ccc2ccc(O)cc2o1 [Umbelliferone, umbelliferone] |  |  | 136 ± 8.14 | 10.2 | CLint ([1]; human, hepatocytes, 1 µM): 131±9.59 µL/min/10^6 cells; t½ ([1]; human, hepatocytes, 1 µM): 10.5 min; hepatocyte CLint at 1 µM (in vitro; intrinsic clearance): 129 ± 2.93 µL/min/1e6 cells
